Test results taken from patent publication US4474780A, “Crystalline cephalosporin” (Eli Lilly and Company, priority 1983, dated 1984).
Read-outs that look alike come from different tables or passages of the source.

How the values were obtained:
[1] = background statement; cited from earlier work
gram positive = conditions: background statement; cited from earlier work
[2] = background statement; cited from earlier work; remark: listed apart in the source
[3] = Absorption following oral administration; format: in vivo
[4] = Stability of the crystal form; format: physicochemical; conditions: prolonged periods of time
[5] = Solubility (saturated solution in water at 37° C.); format: physicochemical; conditions: for solubility: water, 37° C.
Experimental: For example, the compound forms a saturated solution in water at 37° C. according to the following table: […]

Pharmacokinetics = format: in vivo; conditions: in words; tetrahydrate, oral
[6] = Titration (66% N,N-dimethylformamide/water); format: physicochemical; conditions: 66% dmf/water
Text: Titration (66% N,N-dimethylformamide/water) pKa 5.5, 7.5, 11.2.

[7] = system: Peptostreptococcus anaerobius; experiment: Activity against anaerobic cocci
Peptostrept. intermedius = experiment: Activity against anaerobic cocci

## CC1=C(C(=O)O)N2C(=O)C(NC(=O)[C@H](N)c3ccc4ccccc4c3)C2SC1 (stereo partly drawn) [7-(D-2-Naphthylglycylamido)-3-methyl-3-cephem-4-carboxylic acid]
[1]
  pharmacokinetics: favorable pharmacokinetics
Gram positive
  gram positive activity: excellent gram positive activity
[2]
  orally active antibiotic: potent orally active antibiotic

## CC1=C(C(=O)O)N2C(=O)C(NC(=O)[C@H](N)c3ccc4ccccc4c3)C2SC1 (stereo partly drawn) [7-(D-2-naphthylglycylamido)-3-methyl-3-cephem-4-carboxylic acid tetrahydrate]
[3]
  absorption following oral administration: very well absorbed following oral administration
[4]
  stability: very stable for prolonged periods of time
[5]; in words
  solubility in water: only minimally soluble in water
[5]; pH 1.2
  solubility: 8600 µg/mL
[5]; pH 2.0
  solubility: 1700 µg/mL
[5]; pH 3.0
  solubility: 200 µg/mL
[5]; pH 4.0
  solubility: 200 µg/mL
[5]; pH 5.0
  solubility: 200 µg/mL
[5]; pH 6.0
  solubility: 300 µg/mL
[5]; pH 7.0
  solubility: 800 µg/mL
[5]; pH 7.5
  solubility: 1200 µg/mL
[5]; pH 8.0
  solubility: 4100 µg/mL
[5]; pH 8.5
  solubility: 7500 µg/mL
Pharmacokinetics
  pharmacokinetics: favorable pharmacokinetics
[6]; first value
  pKa: 5.5
[6]; second value
  pKa: 7.5
[6]; third value
  pKa: 11.2
[7]
  effective against anaerobic cocci: effective
Peptostrept. intermedius
  effective against anaerobic cocci: effective
